System: skin (epidermis+dermis) of healthy female volunteers
Assay: Comparative study of skin atrophy: skin thickness and density by ultrasound (Dermascan C) after topical treatment of the inner arm
Format: in vivo, human
Text: Comparative Study of Hydrocortisone and Hydrocortisone Combined with β-cyclodextrin Conjugated Retinyl Palmitate Complex with Respect to the Development of Skin Atrophy
The study was run according to the protocol described below and was approved by the local regional ethics committee before the study was initiated.
The study included 10 healthy female volunteers. The average age was 43.2 years. They received treatment with hydrocortisone cream 1% on the inner part of one arm (right or left) once daily for 4 weeks. […] On the opposite arm they were treated with hydrocortisone cream 1% and after 10 minutes Nourella Cream containing β-cyclodextrin conjugated retinyl palmitate complex was applied (Pharma Medico; Aarhus, Denmark). Treatments were randomized so that half of the participants treated the right arm with hydrocortisone and the left with the combination and vice versa.
The skin was inspected clinically in the beginning and at the end of the study and objective measurement of the skin thickness and density was done by ultrasound (Dermascan C).

[1] = after 4 weeks of once daily topical treatment, inner arm, ultrasound, ns

C[C@]12CCC(=O)C=C1CC[C@@H]1[C@@H]2[C@@H](O)C[C@@]2(C)[C@H]1CC[C@]2(O)C(=O)CO [Hydrocortisone, hydrocortisone]
Average reduction of skin thickness (epidermis+dermis) (4 weeks once daily topical, change vs baseline, p=0.07 between arms): 15% | Skin density, After 4 weeks [1]: 1830.0 ns pixel | Skin thickness, After 4 weeks [1]: 0.954 ns mm | Development of low echogenic dark areas (dermis density) (after 4 weeks of treatment, ultrasound, p=0.08): Low echogenic dark areas develop | Cross-section of the skin: thickness and density vs baseline (figure) (after treatment for 4 weeks, ultrasound picture): The skin gets thinner and the density decrease | Skin density, Baseline (baseline, before treatment, inner arm, ultrasound): 1503.5 pixel | Skin thickness, Baseline (baseline, before treatment, inner arm, ultrasound, 10 healthy female volunteers): 1.122 mm | Skin atrophy (used for 4 weeks, FIG. 1 and FIG. 2): significant skin atrophy

From US20100048521A1, “COMBINATION OF A GLUCO-KORTICOID AND BETA-CYCLODEXTRIN CONJUGATED VITAMIN A-DERIVATE COMPLEX” (priority 2006, published 2010)
